Source: patent publication US20090030037A1, “Sustained Release Formulation and Dosing Schedules of Leukotriene Synthesis Inhibitor for Human Therapy” (deCODE Genetics ehf., priority 2005, published 2009)

What was measured:
Type in all cases: in vivo, human
[1] = Population pharmacokinetic analysis (studies DG-031-201, DG-031-203)
Procedure: Preliminary population pharmacokinetic (PK) analysis was also carried out based on clinical studies DG-031-201 and DG-031-203. Based on visual inspection of the individual and mean time course of DG-031 concentrations, a simple one compartmental disposition model following first order oral absorption, and an absorption lag time was fit to the data. A mixed effects modeling approach was used. The pharmacokinetic model parameters (fixed effects) included oral clearance (CL), distribution volume (V), oral absorption (ka), and absorption lag (tiag). The statistical model includes inter-individual random effects as well as a residual error term. All inter-subject random effect parameters (it's) and residual error terms (&) are assumed to be normally distributed with mean of zero and variance o2 and a2, respectively. Random effects on all pharmacokinetic model parameters were explored. Maximum likelihood estimates of the structural (0's) and statistical model parameters were estimated using an approximation to the mixed effect log-likelihood as implemented in the NONMEM program (NONMEM Version Vi).
The influence of patient characteristics (covariates) on pharmacokinetic parameters was explored. Age, gender, body weight, and CrCL (creatinine clearance) were included in the model as covariates if warranted.
Model selection will be done on the basis of the log-likelihood criterion (p<0.05) and visual inspection of goodness-of-fit plots. The difference in −2 times the log of the likelihood (−2LL) between a full and reduced model is asymptotically χ^2 distributed with degrees of freedom equal to the difference in number of parameters between the two models. For instance, a decrease of more than 3.84 in −2LL is considered significant at the p<0.05 level for 1 additional parameter. Standard errors of the parameter estimates are approximated using the asymptotic covariance matrix.

[2] = tested on: White blood cell count; assay: Study DG-031-201: white blood cell count; conditions: difference visit 2 to 5; 500 and 750 mg/day vs placebo
Procedure: Patients who met the study eligibility criteria were enrolled and randomized into 3 different dose-level groups: (1) 64 patients on 250 mg/day therapy with DG-031 (250 mg q.d.), vs placebo; (2) 64 patients on 500 mg/day therapy with DG-031 (250 mg b.i.d.) vs placebo; and (3) 63 patients on 750 mg/day therapy with DG-031 (250 mg t.i.d.) vs placebo. […] All patients received 3 tablets per day. Treatment periods, 4 weeks in duration each, were separated by a 2-week washout period. The placebo tablets were identical in shape, color, form and taste to the active tablets except that they contained no active drug ingredients. Treatment with DG-031 or placebo was in addition to the subject's standard care, including all medications and treatment plan as prescribed by the subject's cardiologist prior to enrolment. A total of 191 subjects were enrolled, with 172 completing all 8 visits or 8 patients short of the target of 180 patients.
All data were analyzed according to a pre-established statistical analysis plan (SAP) and by intention-to-treat (ITT). Each arm of the study, as well as pooled sets (combining dose levels), was considered for the primary analysis. […] The difference between DG-031 and placebo treatment was the primary outcome, assessed separately for each of the biomarkers. […]

[3] = Study DG-031-204: liver function tests (AST, ALT, GGT); conditions: 500 mg BID or TID
Procedure: An additional single site, open label study was carried out to obtain biomarker and safety data on additional DG-031 doses (i.e., 1000 mg and 1500 mg). This study examined the safety, tolerability and dose-related effects of DG-031 on inflammatory biomarkers including: LTB4, hsCRP, and MPO. A total of 119 patients with a prior history of CAD and MI were randomized to receive either 1000 mg DG-031 (500 mg BID) or 1500 mg DG-031 (500 mg TID) daily for 4-6 weeks. Treatment with DG-031 in addition to the subject's standard care, medication, and treatment, was prescribed by the patient's cardiologist. A majority of the subjects received statin therapy before, during and after the study. Follow-up assessments were performed 2 weeks after the end of study drug administration.
Liver function tests (AST, ALT, GGT) were assessed weekly during study drug administration and two weeks after dosing. […] Serum creatinine (Cr) was measured weekly during study drug administration and two weeks after dosing. In both the 500 mg BID and 500 mg TID treatment groups, mean serum Cr concentrations increased 4-5% relative to baseline levels. At the 2-week follow up visit, mean serum Cr returned to baseline in the cohort treated for 4 weeks, but remained elevated in the group treated for 6 weeks. Creatine kinase (CK) measurements were obtained weekly during study drug administration and two weeks after dosing.

O=C(O)[C@@H](c1ccc(OCc2ccc3ccccc3n2)cc1)C1CCCC1 [DG-031, (R)-(+)-alpha-cyclopentyl-4-(2-quinolinylmethoxy)-Benzeneacetic acid]
PK linearity ([1]; 250 mg to 1500 mg administered daily): linear PK | oral CL ([1]; 90 kg patient): 5.86 L/h | Accumulation ([1]; BID dosing): 12% | V (distribution volume) ([1]; human, plasma, oral): 32 L | V, inter-subject CV % ([1]; human, plasma, oral): 44% | half-life ([1]; human, plasma, oral, MI patients, estimated, read-out: Terminal elimination half-life (converted)): ~4 h | Effect of body weight on CL ([1]; in vivo): minor effects | Carry-over effect, White blood cell count [2]: −0.01 | Mean liver function tests (AST, ALT, GGT) [3]: No adverse trends
